Measured values reported in patent US20210255193A1, “LYSINE REACTIVE PROBES AND USES THEREOF” (The Scripps Research Institute, priority 2017, published 2021).

How the values were obtained:
[1] = biological target: T1, HDHD3 Haloacid dehalogenase-like hydrolase domain-containing protein 3 (Homo sapiens, UniProt Q9BSH5); assay: competitive isoTOP-ABPP; format: binding; set-up: key to isoTOP-ABPP reactivity ratio at lysine Q9BSH5_K15: R = MS1 peak area ratio, DMSO (heavy) / compound-treated (light); details: 50 uM, in vitro; for R value (DMSO/fragment) for probe 1 labeling: Q9BSH5_K15; for R value (DMSO/fragment) for probe 1 labeling / isoTOP-ABPP reactivity ratio at lysine Q9BSH5_K15: 231 sol; for isoTOP-ABPP ratio (R) at liganded lysine Q9BSH5_K15: sol, 231
T1 construct: isoTOP-ABPP experiments performed in cell lysates (in vitro); endogenous in cells; host or cells: soluble proteome of human cancer cell lines (MDA-MB-231; Ramos and Jurkat also prepared)
T1 sequence (Q9BSH5 1-251): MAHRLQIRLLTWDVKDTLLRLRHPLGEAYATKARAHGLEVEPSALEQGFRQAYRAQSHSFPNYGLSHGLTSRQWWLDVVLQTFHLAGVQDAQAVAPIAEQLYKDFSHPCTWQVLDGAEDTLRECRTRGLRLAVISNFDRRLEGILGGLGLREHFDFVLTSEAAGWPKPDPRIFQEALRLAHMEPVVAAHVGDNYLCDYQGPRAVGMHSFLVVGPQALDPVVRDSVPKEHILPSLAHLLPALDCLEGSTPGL
Procedure: (§1) In vitro covalent fragment treatment for isoTOP-ABPP. All compounds were made up as solutions in DMSO (100×) and were used at a final concentration of 50 μM for activated esters and 100 μM for guanidinylating agents. For each profiling sample, 0.5 ml of lysate was treated with 5 μl of the 100× compound stock solution or 5 μl of DMSO. Samples were treated with activated esters for
(§2) STP-alkyne labeling and click chemistry. For concentration-dependent reactivity measurements by isoTOP-ABPP, 0.5 ml proteome aliquots were treated at ambient temperature with 1 mM STP-alkyne 1 (5 μl of 100 mM stock in DMSO) and 0.1 mM STP alkyne 1 (5 μl of 10 mM stock in DMSO), respectively. For competitive isoTOP-ABPP, after in vitro fragment treatment (detailed above), the samples were labeled for 1 h at ambient temperature with 0.1 mM STP-alkyne 1 (5 μl of 10 mM stock in DMSO). Samples were conjugated by copper-mediated azide-alkyne cycloaddition (CuAAC) to either the light (1 mM STP-alkyne or fragment treated) or heavy (0.1 mM STP-alkyne or DMSO treated) TEV tags (10 μl of 5 mM stocks in DMSO, final concentration=100 μM) using tris(2-carboxyethyl)phosphine hydrochloride
(§3) R value calculation and processing. The ratios of light and heavy MS1 peaks for each unique peptide were quantified with a CIMAGE software using default parameters (3 MS1 acquisitions per peak and signal to noise threshold set to 2.5). For reactivity measurements by isoTOP-ABPP, the R value was calculated from the ratio of MS1 peak areas, comparing the 1 mM STP alkyne sample (light TEV tag) with the 0.1 mM STP alkyne sample (heavy TEV tag). For competitive isoTOP-ABPP, the R value was calculated from the ratio of MS1 peak areas, comparing the DMSO treated sample (heavy TEV tag) with the compound treated sample (light TEV tag). […] Ratios for unique peptide entries are calculated for each experiment; overlapping peptides with the same modified lysine (for example, different charge states, MudPIT chromatographic steps or tryptic termini) are grouped together and the median ratio is reported as the final ratio (R). The peptide ratios reported by CIMAGE were further filtered to ensure the removal or correction of low-quality ratios in each individual data set. The quality filters applied were the following: removal of half tryptic peptides; for ratios with high standard deviations from the median (90% of the median or above) the lowest ratio was taken instead of the median; removal of peptides with R=20 and only a single MS2 event triggered during the elution of the parent ion; manual annotation of all the peptides with ratios of 20, removing any peptides with low quality elution profiles that remained after the previous curation steps (only done for competitive isoTOP-ABPP).
(§4) Cross-data processing for fragment screening. For compound treated samples, biological replicates of the same condition were averaged, if the standard deviation was below 60% of the mean; otherwise, for lysines with at least one R value <4 for a particular compound, the lowest value of the ratio set was taken. For lysines, where all R values for a particular compound were ≥4, the average was reported. For peptides containing several possible modified lysines, the lysine with the highest number of quantification events was used for analysis and the remaining, redundant peptides were reported as alternative modification sites. Peptides included in the aggregate dataset (those used for further bioinformatics and statistical analyses) were required to have been quantified in 2 experiments for competitive isoTOP-ABPP. Lysines were categorized as liganded, if they had at least one ratio R≥4 (hit fragments). For liganded lysines with R=20 for all liganding events, lysines were required to have been quantified with R=20 in two separate experiments and were further required to have been quantified with R<20 in one additional experiment.

HK1 Hexokinase-1 = biological target: T2, HK1 Hexokinase-1 (Homo sapiens, UniProt P19367); assay: competitive isoTOP-ABPP; format: binding; set-up: key to isoTOP-ABPP reactivity ratio at lysine P19367_K510: R = MS1 peak area ratio, DMSO (heavy) / compound-treated (light); details: 50 uM, in vitro; for R value (DMSO/fragment) for probe 1 labeling: P19367_K510; for R value (DMSO/fragment) for probe 1 labeling / isoTOP-ABPP reactivity ratio at lysine P19367_K510: 231 sol; for isoTOP-ABPP ratio (R) at liganded lysine P19367_K510: sol, 231
T2 construct: isoTOP-ABPP experiments performed in cell lysates (in vitro); endogenous in cells; host or cells: soluble proteome of human cancer cell lines (MDA-MB-231; Ramos and Jurkat also prepared)
T2 sequence (P19367 1-917): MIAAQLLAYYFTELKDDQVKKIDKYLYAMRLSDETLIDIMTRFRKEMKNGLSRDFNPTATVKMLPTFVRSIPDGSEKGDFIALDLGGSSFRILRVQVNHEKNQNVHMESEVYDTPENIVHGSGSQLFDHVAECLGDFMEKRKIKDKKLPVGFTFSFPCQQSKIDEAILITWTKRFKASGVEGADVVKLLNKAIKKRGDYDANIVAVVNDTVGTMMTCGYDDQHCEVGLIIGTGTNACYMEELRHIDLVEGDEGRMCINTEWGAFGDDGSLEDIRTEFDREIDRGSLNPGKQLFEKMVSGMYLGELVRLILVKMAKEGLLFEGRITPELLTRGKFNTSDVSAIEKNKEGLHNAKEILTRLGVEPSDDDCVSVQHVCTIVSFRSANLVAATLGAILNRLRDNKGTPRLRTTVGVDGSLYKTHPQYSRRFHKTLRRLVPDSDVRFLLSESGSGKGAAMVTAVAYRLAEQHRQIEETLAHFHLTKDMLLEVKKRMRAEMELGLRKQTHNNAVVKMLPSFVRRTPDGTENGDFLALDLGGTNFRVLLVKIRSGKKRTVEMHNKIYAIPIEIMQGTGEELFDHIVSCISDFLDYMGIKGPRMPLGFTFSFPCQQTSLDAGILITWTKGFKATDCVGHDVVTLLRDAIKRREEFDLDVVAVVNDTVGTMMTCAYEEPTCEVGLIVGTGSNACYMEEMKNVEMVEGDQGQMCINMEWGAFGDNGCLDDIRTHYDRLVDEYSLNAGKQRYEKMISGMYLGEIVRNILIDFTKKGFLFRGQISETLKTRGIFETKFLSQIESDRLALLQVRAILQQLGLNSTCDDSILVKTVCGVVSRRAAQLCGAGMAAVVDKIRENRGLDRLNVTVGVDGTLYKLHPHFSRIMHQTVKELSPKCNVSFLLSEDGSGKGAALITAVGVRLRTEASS
Procedure: as §1, §2, §3, §4

| SMILES | isoTOP-ABPP reactivity ratio at lysine Q9BSH5_K15 [1] | isoTOP-ABPP reactivity ratio at lysine P19367_K510 (HK1 Hexokinase-1) | also measured |
| --- | --- | --- | --- |
| O=C(CCc1cn(-c2ccccc2)nc1-c1ccccc1)Oc1c(F)c(F)c(F)c(F)c1F [fragment 19, Pentafluorophenyl 3-(1,3-diphenyl-1H-pyrazol-4-yl)propanoate] |  |  | R value (DMSO/fragment) for probe 1 labeling [1]: 20.0; R value (DMSO/fragment) for probe 1 labeling (HK1 Hexokinase-1): 1.2 |
| O=C(Oc1c(F)c(F)c(F)c(F)c1F)C(c1ccccc1)c1ccccc1 [fragment 20, Pentafluorophenyl 2,2-diphenylacetate] |  |  | R value (DMSO/fragment) for probe 1 labeling [1]: 1.1; R value (DMSO/fragment) for probe 1 labeling (HK1 Hexokinase-1): 0.9 |
| O=C(Oc1c(F)c(F)c(F)c(F)c1F)c1cc(C(F)(F)F)cc(C(F)(F)F)c1 [fragment 21, Pentafluorophenyl 3,5-bis(trifluoromethyl)benzoate] |  |  | R value (DMSO/fragment) for probe 1 labeling [1]: 1.0; R value (DMSO/fragment) for probe 1 labeling (HK1 Hexokinase-1): 1.0 |
| Cn1cc(CC(=O)Oc2c(F)c(F)c(F)c(F)c2F)c2ccccc21 [fragment 22, Pentafluorophenyl 2-(1-methyl-1H-indol-3-yl)acetate] |  |  | R value (DMSO/fragment) for probe 1 labeling [1]: 1.1; R value (DMSO/fragment) for probe 1 labeling (HK1 Hexokinase-1): 1.3 |
| COc1cc(CCC(=O)Oc2c(F)c(F)c(F)c(F)c2F)cc(OC)c1OC [fragment 23, Pentafluorophenyl 3-(3,4,5-trimethoxyphenyl)propanoate] |  |  | R value (DMSO/fragment) for probe 1 labeling [1]: 1.3; R value (DMSO/fragment) for probe 1 labeling (HK1 Hexokinase-1): 2.0 |
| O=C(Oc1c(F)c(F)c(F)c(F)c1F)C1CCN(C(=O)OCc2ccccc2)CC1 [fragment 24, 1-Benzyl 4-(pentafluorophenyl) piperidine-1,4-dicarboxylate] | 2.3 |  |  |
| O=C(Oc1c(F)c(F)c(F)c(F)c1F)c1ccc2ccccc2n1 [fragment 25, Pentafluorophenyl quinoline-2-carboxylate] | 4.0 | 1.2 |  |
| O=C(CCc1coc2cc(F)ccc2c1=O)Oc1c(F)c(F)c(F)c(F)c1F [fragment 26, Pentafluorophenyl 3-(7-fluoro-4-oxo-4H-chromen-3-yl)propanoate] | 3.4 | 3.4 |  |
| O=C(CN1C(=O)c2ccccc2C1=O)Oc1c(F)c(F)c(F)c(F)c1F [fragment 27, Pentafluorophenyl 2-(1,3-dioxoisoindolin-2-yl)acetate] | 2.3 | 1.3 |  |
| CCn1cc(C(=O)Oc2c(F)c(F)c(F)c(F)c2F)c(=O)c2ccc(C)nc21 [fragment 28, Pentafluorophenyl 1-ethyl-7-methyl-4-oxo-1,4-dihydro-1,8-naphthyridine-3-carboxylate] | 13.8 | 0.9 |  |
| O=C(CCc1cn(-c2ccccc2)nc1-c1ccccc1)Oc1ccc([N+](=O)[O-])cc1[N+](=O)[O-] [fragment 29, 2,4-Dinitrophenyl 3-(1,3-diphenyl-1H-pyrazol-4-yl)propanoate] | 20.0 | 10.8 |  |
| O=C(Oc1ccc([N+](=O)[O-])cc1[N+](=O)[O-])C(c1ccccc1)c1ccccc1 [fragment 30, 2,4-Dinitrophenyl 2,2-diphenylacetate] | 20.0 | 1.0 |  |
| O=C(Oc1ccc([N+](=O)[O-])cc1[N+](=O)[O-])c1cc(C(F)(F)F)cc(C(F)(F)F)c1 [fragment 31, 2,4-Dinitrophenyl 3,5-bis(trifluoromethyl)benzoate] | 4.6 | 1.1 |  |
| Cn1cc(CC(=O)Oc2ccc([N+](=O)[O-])cc2[N+](=O)[O-])c2ccccc21 [fragment 32, 2,4-Dinitrophenyl 2-(1-methyl-1H-indol-3-yl)acetate] | 6.7 | 8.6 |  |
| COc1cc(CCC(=O)Oc2ccc([N+](=O)[O-])cc2[N+](=O)[O-])cc(OC)c1OC [fragment 33, 2,4-Dinitrophenyl 3-(3,4,5-trimethoxyphenyl)propanoate] | 1.5 | 20.0 |  |
| O=C(Oc1ccc([N+](=O)[O-])cc1[N+](=O)[O-])C1CCN(C(=O)OCc2ccccc2)CC1 [fragment 34, 1-Benzyl 4-(2,4-dinitrophenyl) piperidine-1,4-dicarboxylate] |  |  | isoTOP-ABPP ratio (R) at liganded lysine Q9BSH5_K15 [1]: 4.1; isoTOP-ABPP ratio (R) at liganded lysine P19367_K510 (HK1 Hexokinase-1): 20.0 |
| O=C(Oc1ccc([N+](=O)[O-])cc1[N+](=O)[O-])c1ccc2ccccc2n1 [fragment 35, 2,4-Dinitrophenyl quinoline-2-carboxylate] |  |  | isoTOP-ABPP ratio (R) at liganded lysine Q9BSH5_K15 [1]: 7.0; isoTOP-ABPP ratio (R) at liganded lysine P19367_K510 (HK1 Hexokinase-1): 1.1 |
| O=C(Oc1ccc([N+](=O)[O-])cc1[N+](=O)[O-])c1ccccc1Nc1cccc(C(F)(F)F)c1 [fragment 40, 2,4-Dinitrophenyl 2-((3-(trifluoromethyl)phenyl)amino)benzoate] |  |  | isoTOP-ABPP ratio (R) at liganded lysine Q9BSH5_K15 [1]: 0.9 |
